Measured values from patent publication US20210283082A1, “PHARMACEUTICAL COMPOSITION FOR PREVENTION OR TREATMENT OF KIDNEY DAMAGE” (National University Corporation Kanazawa University, priority 2018, published 2021).
“Also recorded” adds a separate entry of the source.

Experiments:
rats = settings: intraperitoneal, 800 mg/kg (NPL 3), 400 mg/kg (NPL 4) or 250 mg/kg (NPLs 5 and 6); cited from earlier work
[1] = Blood D-serine concentration after free provision of 20 mM D-serine water; type: in vivo; settings: mice reared with free access to 20 mM D-serine-containing water
Procedure: The animals were reared with free access to water and feed under conditions with an SPF environment and 12-hour light-dark cycling. C57BL/6J mice were purchased from Clea Japan, Inc. (Osaka).
The mice were reared in an environment allowing free access to water (control) or 20 mM D-serine-containing water, and the blood D-serine concentrations were measured. The blood D-serine concentrations were determined by total amino acid optical isomer analysis using a D, L-amino acid simultaneous high sensitivity analysis system developed by Zaitsu et al. (Japanese Patent No. 4291628). The details regarding the analysis conditions for each amino acid are described in Miyoshi Y. et al., J. Chromatogr. B, 879:3184(2011) and Sasabe, J. et al., Proc. Natl. Acad. Sci. U.S.A., 109:627(2012). In brief, serum and urine amino acids were fluorescently derivatized with NBD-F (4-fluoro-7-nitro-2,1,3-benzooxadiazole, Tokyo Kasei Kogyo Co., Ltd.) and supplied to an HPLC system (NANOSPACE SI-2 Series, product of Shiseido Corp.). NBD-amino acids separated two-dimensionally using an in-house reversed-phase column with an octadecyl group as the stationary phase and a chiral column with an amino acid derivative as the stationary phase, were quantitatively analyzed after detection at an excitation wavelength of 470 nm and a detection wavelength of 530 nm. […]

[2] = system: mice treated by renal ischemia reperfusion; assay: Renal ischemia reperfusion, F4/80 immunostaining of kidney tissue (macrophages); type: in vivo; settings: day 5 after ischemia reperfusion; 20 mM D-serine water vs water
Procedure: The animals were reared with free access to water and feed under conditions with an SPF environment and 12-hour light-dark cycling. C57BL/6J mice were purchased from Clea Japan, Inc. (Osaka). Male 12- to 16-week-old mice were treated by renal ischemia reperfusion (hereunder also referred to as “I/R”). The renal pedicles were clamped with a non-traumatic clip (Natsume Seisakusho, Tokyo) under pentobarbital anesthesia to elicit ischemia. The clips were released after 40 minutes. The body temperature was kept at 37° C. during treatment. The mice were reared with free access to water (control) or 20 mM D-serine-containing water, prior to 14 days after IR treatment. On day 0, 2, 5, 7 and 10 after IR treatment, the kidney tissues were sampled. Renal samples harvested on day 0 and day 5 were fixed with 10% neutral buffered formalin and supplied for immunostaining using F4/80 antibody (Invitrogen, catalog #: MF48,000). F4/80 is a protein expressed specifically by macrophages, and it allows visualization of macrophages in kidney tissue. In the water-administered control group, cells stained with F4/80 were found accumulated in kidney tissue (day 5), but in the D-serine-administered group such cellular accumulation was minimal (FIG. 3(A)). The regions stained with F4/80 in the kidney tissue harvested on day […] were measured and shown (FIG. 3(B)).

[3] = system: mice treated by renal ischemia reperfusion; assay: Renal ischemia reperfusion, PAS staining and ATN score of kidney tissue sections; type: in vivo
Procedure: The animals were reared with free access to water and feed under conditions with an SPF environment and 12-hour light-dark cycling. C57BL/6J mice were purchased from Clea Japan, Inc. (Osaka). Male 12- to 16-week-old mice were treated by renal ischemia reperfusion (hereunder also referred to as “I/R”). The renal pedicles were clamped with a non-traumatic clip (Natsume Seisakusho, Tokyo) under pentobarbital anesthesia to elicit ischemia. The clips were released after 40 minutes. The body temperature was kept at 37° C. during treatment. The mice were reared with free access to water (control) or 20 mM D-serine-containing water, prior to 14 days after IR treatment. On day 0, 2, 5, 7 and 10 after IR treatment, the kidney tissues were sampled. Kidneys sampled on day 0, 2 and 10 were fixed with 10% neutral buffered formalin and embedded in paraffin, and then stained with periodic acid-Schiff (PAS staining). The stained slices were photographed with a bright-field microscope (FIG. 1). Debris stained with PAS (skin boundary) or brush border (skin boundary and cortical region) were quantitatively evaluated in at least 10 different locations. Renal tubule necrosis (A), intraluminal debris (B) and brush border region (C) were evaluated by ATN score (0: none, 1: mild, 2: moderate, 3: severe), with the results shown in FIGS. 2(A) to (C). Sample evaluation was carried out blind.

N[C@H](CO)C(=O)O [D-serine]
nephrotoxicity (rats): causes nephrotoxicity | blood D-serine concentration [1]: 100 nmol/mL | F4/80 staining of kidney tissue (accumulation of macrophages and monocytes) [2]: little change in staining intensity; also recorded: minimal | grades of necrosis, intraluminal debris and brush border region (ATN score) ([3]; 0, 2, 5, 7 and 10 days after ischemia reperfusion, compared to the group given water): improved | PAS staining intensity of kidney tissue section (accumulation of inflammatory cells such as neutrophils and eosinophils) ([3]; day 10 after ischemia reperfusion, 20 mM D-serine water vs water): no such change in staining intensity | protecting effect on the kidneys ([3]; mice, drinking water containing 20 mM D-serine, blood concentration 100 nmol/mL): able to exhibit a protecting effect on the kidneys
